Data: patent US20250388568A1, “NLRP3 INHIBITORS” (Kodiak Sciences Inc., priority 2022, published 2025)

Assays:
[1] = test system: IL-1β release in U937 cells after NLRP3 activation; test: IC50 determination of IL-1β release inhibition in U937 cells; format: cell-based; conditions: Homo sapiens, U-937; PMA-differentiated U937 cells, LPS priming 5 h, nigericin; average of at least three experiments; read-out: IL-1β IC50 (nM) U937 cells
Protocol: Example 79: IC50 Determination of IL-1β Release Inhibition in U937 Cells The compounds of the present disclosure were tested for their ability to inhibit the IL-1β release in the U937 cells after NLRP3 activation. U937 cells (U-97 CRL 1593.2) were thawed following ATCC's initial culture procedure. […] The growth medium was composed of RPMI1640 medium (Quality Biological 112-040-101), 10% serum (Corning 35-076-CV), Pen/Strep (GIBCO 15140-122), 10 mM Hepes (Quality Biological 118-089-721), 2 mM Glutamax (GIBCO 35050-061), and 100 μg/mL normocin (Invivogen ant-nr)-Differentiating media was prepared by adding Phorbol 12-myristate 13-acetate (PMA) (AdipoGen AG-CN2-0010-M005) to growth medium. A cell suspension was prepared with differentiating media at 500k cells/ml. With an electronic pipet, 200 ul of cell suspension was added to each well (96w white plate Corning 3903) leaving columns 1 and 2 empty. Plates were left in the biosafety cabinet for 15 min and then placed in incubator for 90 hours. Priming media was prepared with assay medium consisting of RPMI 1640 medium, 10 mM Hepes, 2 mM Glutamax and Pen/Strep plus 1 μg/mL LPS (Invivogen tlrl-3pelps). Differentiating media was manually removed and 80 ul of priming media was added to each well with an electronic pipet. The plates were placed in the incubator for 5 hours. […] DMSO). An hour prior to the end of LPS incubation, a separate 96 deep well plate, Plate B, was prepared with 400 μL of assay media per well, then […] of the stock DMSO solution from Plate A was added to each corresponding well. Plate B was covered to avoid media evaporation. In a 50 mL tube, a solution of nigericin in assay media at 50 uM/mL concentration was prepared. To a new 96 deep well plate, Plate C, 200 μL of this nigericin containing media was dispensed to each well and 1 μL of the test compounds from Plate B to each corresponding well was added. Plate C was covered to avoid media evaporation. After 5 hours of priming, all the media from the LPS treated U937 cells was removed manually. To this plate of primed cells, 80 μL/well test compounds from Plate B (assay media+compound) was added in duplicate columns (5 compounds tested per plate). The plate was placed in an incubator for 30 min. […] The plate was placed back in the incubator for 1 hour. At the end of 1 hour, the supernatant from this test plate was transferred to a new 96 well V bottom polypropylene plate which was frozen immediately at -80° C. The plate was transferred to -20° C. the next day and awaited further determination of cytokine IL-Ip level. The release of IL-1β into the cell media was determined by MSD® Multi-Spot Assay System (V-Plex, IL-1B kit, […]-4). Following the manufacture's protocol and using the Alternate Protocol 3, Dilute-In-Plate protocol specifically, the level of IL-IP in the above collected supernatant plate was measured as electrochemiluminescent signals. Using MSD DISCOVERY WORKBENCH® analysis software, the signals were converted to the concentration of IL-1β in each well. The IC50 values of the compounds were calculated using the Graph Pad Prism software based on the IL-1β concentration determined. The detection range of IL-1β using MSD kit was approximately […] (based on various lots of standards purchased from MSD).

[2] = test system: IL-1β release in THP-1-ASC-GFP cells after NLRP3 activation; test: IC50 determination of IL-1β release inhibition in THP-1-ASC-GFP cells; format: cell-based; conditions: THP1-ASC-GFP; THP-1-ASC-GFP cells, LPS priming 4 h, nigericin; average of at least three experiments; read-out: IL-1β IC50 (nM) THP1 cells
Protocol: Example 78: IC50 Determination of IL-1β Release Inhibition in THP-1-ASC-GFP Cells The compounds were tested for their ability to inhibit the IL-1β release in the THP-1-ASC-GFP cells after NLRP3 activation. THP1-ASC-GFP cells (Invivogen […] thawed following Invivogen's initial culture procedure. […] The growth medium was composed of RPM1640 medium (Gibco 32404-014), 10% heat inactivated (HI) serum (Gibco A3840102), Pen/Strep (Quality Biologics 118-089-721), 10 mM Hepes (Quality Biologics 118-089-721), 2 mM Glutamax (GIBCO 35050-061), 100 μg/mL normocin (Invivogen ant-nr), 100 μg/mL Zeocin (Invivogen ant-zn). The growth medium was freshly prepared once a week and sterile filtered. Assay medium consisted of RPMI 1640 medium, 10 mM Hepes, 2 mM Glutamax and Pen/Strep. To the assay medium, 1 μg/mL LPS (Invivogen tlrl-3pelps) was added. A cell suspension was prepared with assay medium and LPS at 1.25M cells per mL. With an electronic pipet, 80 μl of cell suspension was added to U bottom 96 well polystyrene plates (VWR 10062-902) leaving columns 1 and 2 empty. The plates were placed in the incubator for 4 hours. […] DMSO). An hour prior to the end of LPS incubation, a separate 96 deep well plate, Plate B, was prepared with 400 μL of assay media per well, then 2 μL of the stock DMSO solution from Plate A was added to each corresponding well. Plate B was covered to avoid media evaporation. In a 50 mL tube, a solution of nigericin in assay media at […] concentration was prepared. To a new 96 deep well plate, Plate C, 200 μL of this nigericin containing media was dispensed to each well and […] of the test compounds from Plate A to each corresponding well was added. Plate C was covered to avoid media evaporation. After 4 hours of priming, all the media from the LPS treated THP-1 cells in the initial U bottom plate was removed manually. To this plate of primed cells, 80 μL/well test compounds from Plate B was added in duplicate columns (5 compounds tested per plate). The plate was placed in an incubator for 30 min. […] The plate was placed back in the incubator for 1 hour. At the end of 1 hour, the supernatant from this test plate was transferred to a new 96 well V bottom polypropylene plate which was frozen immediately at -80° C. The plate was transferred to -20° C. the next day and awaiting further determination of cytokine IL-1β level. The release of IL-1β into the cell media was determined by MSD® Multi-Spot Assay System (V-Plex, IL-1B kit, […]-4). Following the manufacture's protocol and using the Alternate Protocol 3, Dilute-In-Plate protocol specifically, the level of IL-1β in the above collected supernatant plate was measured as electrochemiluminescent signals. Using MSD DISCOVERY WORKBENCH® analysis software, the signals were converted to the concentration of IL-1β in each well. The IC50 values of the compounds were calculated using the Graph Pad Prism software based on the […] concentration determined. The detection range of IL-1β using MSD kit was approximately […] (based on various lots of standards purchased from MSD).

| SMILES | IC50 [1] | IC50 [2] |
| --- | --- | --- |
| Cc1cc(S(=O)(=O)NC(=O)Nc2c3c(c(Cl)c4c2CCC4)CCC3)oc1CN(C)CC1(O)CCC1 [Example 57, N-((8-chloro-1,2,3,5,6,7-hexahydro-s-indacen-4-yl)carbamoyl)-5-((((1-hydroxycyclobutyl)methyl)(methyl)amino)methyl)-4-methylfuran-2-sulfonamide] | 5 to 50 nM | 5 to 50 nM |
| CC(C)n1nc(S(=N)(=O)NC(=O)Nc2c3c(cc4c2CCC4)CCC3)cc1CN1CC(O)C1 (stereo not shown) [Example 19, N-((1,2,3,5,6,7-hexahydro-s-indacen-4-yl)carbamoyl)-5-((3-hydroxyazetidin-1-yl)methyl)-1-isopropyl-1H-pyrazole-3-sulfonimidamide] | 5 to 50 nM | < 5 nM |
| Cc1oc(S(=N)(=O)NC(=O)Nc2c3c(cc4c2CCC4)CCC3)cc1CN(C)CC1(CO)CCOCC1 (stereo not shown) [Example 10, N-((1,2,3,5,6,7-hexahydro-s-indacen-4-yl)carbamoyl)-4-((((4-(hydroxymethyl)tetrahydro-2H-pyran-4-yl)methyl)(methyl)amino)methyl)-5-methylfuran-2-sulfonimidamide] | 5 to 50 nM | < 5 nM |
| Cc1oc(S(=N)(=O)NC(=O)Nc2c3c(cc4c2CCC4)CCC3)cc1CN (stereo not shown) [Example 24, 4-(aminomethyl)-N-((1,2,3,5,6,7-hexahydro-s-indacen-4-yl)carbamoyl)-5-methylfuran-2-sulfonimidamide] | 5 to 50 nM | < 5 nM |
| Cc1oc(S(=N)(=O)NC(=O)Nc2c3c(cc4c2CCC4)CCC3)cc1CN(C)CC1(CO)CCC1 (stereo not shown) [Example 9, N-((1,2,3,5,6,7-hexahydro-s-indacen-4-yl)carbamoyl)-4-((((1-(hydroxymethyl)cyclobutyl)methyl)(methyl)amino)methyl)-5-methylfuran-2-sulfonimidamide] | 5 to 50 nM | < 5 nM |
| Cc1oc(S(=O)(=O)NC(=O)Nc2c3c(c(F)c4c2CCC4)CCC3)cc1CN(C)CC1(O)CCCC1 [Example 37, N-((8-fluoro-1,2,3,5,6,7-hexahydro-s-indacen-4-yl)carbamoyl)-4-((((1-hydroxycyclopentyl)methyl)(methyl)amino)methyl)-5-methylfuran-2-sulfonamide] | 5 to 50 nM | < 5 nM |
| Cc1oc(S(=N)(=O)NC(=O)Nc2c3c(c(F)c4c2CCC4)CCC3)cc1CN(C)CC1(CO)CCC1 (stereo not shown) [Example 13, N-((8-fluoro-1,2,3,5,6,7-hexahydro-s-indacen-4-yl)carbamoyl)-4-((((1-(hydroxymethyl)cyclobutyl)methyl)(methyl)amino)methyl)-5-methylfuran-2-sulfonimidamide] | 5 to 50 nM | < 5 nM |
| CN(Cc1cc(S(=O)(=O)NC(=O)Nc2c3c(c(F)c4c2CCC4)CCC3)nn1C)CC1(O)CCC1 [Example 58, 3-(8-fluoro-1,2,3,5,6,7-hexahydro-s-indacen-4-yl)-1-[5-({[(1-hydroxycyclobutyl)methyl](methyl)amino}methyl)-1-methylpyrazol-3-ylsulfonyl]urea] | 5 to 50 nM | 50 to 500 nM |
| Cc1oc(S(=N)(=O)NC(=O)Nc2c3c(cc4c2CCC4)CCC3)cc1CN(C)CC1(O)CC1 (stereo not shown) [Example 11, N-((1,2,3,5,6,7-hexahydro-s-indacen-4-yl)carbamoyl)-4-((((1-hydroxycyclopropyl)methyl)(methyl)amino)methyl)-5-methylfuran-2-sulfonimidamide] | 5 to 50 nM | < 5 nM |

More lines, now with the values ahead:

| IC50 [1] | IC50 [2] | SMILES |
| --- | --- | --- |
| 5 to 50 nM | 5 to 50 nM | Cn1nc(S(=O)(=O)NC(=O)Nc2c3c(c(F)c4c2CCC4)CCC3)cc1CN1CCC[C@@H]1CO [Example 63, (R)-N-((8-fluoro-1,2,3,5,6,7-hexahydro-s-indacen-4-yl)carbamoyl)-5-((2-(hydroxymethyl)pyrrolidin-1-yl)methyl)-1-methyl-1 H-pyrazole-3-sulfonamide] |
| 5 to 50 nM | 5 to 50 nM | Cn1nc(S(=O)(=O)NC(=O)Nc2c3c(c(F)c4c2CCC4)CCC3)cc1CNCC1(O)CCC1 [Example 59, N-((8-fluoro-1,2,3,5,6,7-hexahydro-s-indacen-4-yl)carbamoyl)-5-((((1-hydroxycyclobutyl)methyl)amino)methyl)-1-methyl-1H-pyrazole-3-sulfonamide] |
| < 5 nM | < 5 nM | Cc1oc(S(=N)(=O)NC(=O)Nc2c3c(cc4c2CCC4)CCC3)cc1CN1CCC[C@H]1CO (stereo partly drawn) [Example 8, N-((1,2,3,5,6,7-hexahydro-s-indacen-4-yl)carbamoyl)-4-(((S)-2-(hydroxymethyl)pyrrolidin-1-yl)methyl)-5-methylfuran-2-sulfonimidamide] |
| < 5 nM | < 5 nM | CN(CC1(O)CCC1)C(=O)c1coc(S(=N)(=O)NC(=O)Nc2c3c(cc4c2CCC4)CCC3)c1 (stereo not shown) [Example 4, 5-(N-((1,2,3,5,6,7-hexahydro-s-indacen-4-yl)carbamoyl)sulfamidimidoyl)-N-((1-hydroxycyclobutyl)methyl)-N-methylfuran-3-carboxamide] |
| < 5 nM | < 5 nM | Cc1oc(S(=N)(=O)NC(=O)Nc2c3c(cc4c2CCC4)CCC3)cc1CN(C)CC1(O)CCC1 (stereo not shown) [Example 12, N-((1,2,3,5,6,7-hexahydro-s-indacen-4-yl)carbamoyl)-4-((((1-hydroxycyclobutyl)methyl)(methyl)amino)methyl)-5-methylfuran-2-sulfonimidamide] |
